In US9227971B2, “Pyrazolo[1,5-a]pyrimidine compounds as mTOR inhibitors” (Merck Sharp & Dohme Corp., priority 2010, dated 2016):
pIC50: −log10 of the molar value.

Experiments:
[1] = test system: phosphorylated AKT Ser473 (pAKT S473), mTORC2 activity, PC3 cells; test: mTOR target engagement assay, immunofluorescent cell-based, pAKT S473 readout (mTORC2 activity); conditions: Homo sapiens, PC-3, PC3 cells, compound treatment ninety minutes at 37° C.
Procedure, shortened: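 After blocking, cells were stained overnight at 4 °C with anti-pAKT S473 antibody, then a fluorescent secondary; inhibition was read as reduced fluorescence intensity.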

[2] = test system: phosphorylated 4E-BP1 Thr37/46 (p4E-BP1 Thr37/46), mTORC1 activity, PC3 cells; test: mTOR target engagement assay, immunofluorescent cell-based, p4E-BP1 Thr37/46 readout (mTORC1 activity); conditions: Homo sapiens, PC-3, PC3 cells, compound treatment ninety minutes at 37° C.; read-out: p4E-BP1 Thr37/46 IC50
Procedure, shortened: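 Read-out is fluorescence intensity of immunostained p4E-BP1 Thr37/46 in fixed PC3 cells, fitted to a logistic curve for IC50 with DMSO-only wells as top. Cells had been exposed to serial compound dilutions for ninety minutes at 37° C in 5% FBS medium with 0.25% DMSO.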

SMILES | pIC50 [1] | pIC50 [2]
CC(=O)c1c([C@@H]2C[C@H]3CC[C@@H](C2)N3C(=O)c2cn[nH]c2N)nc2c(-c3ccc(C(C)(C)O)nc3)cnn2c1N [Compound 7.15, 1-(7-amino-5-((1R,3s,5S)-8-(5-amino-1H-pyrazole-4-carbonyl)-8-azabicyclo[3.2.1]octan-3-yl)-3-(6-(2-hydroxypropan-2-yl)pyridin-3-yl)pyrazolo[1,5-a]pyrimidin-6-yl)ethanone] | 6.00 to 7.00 | 6.00 to 7.00
CC(=O)c1c([C@@H]2C[C@H]3CC[C@@H](C2)N3C(=O)c2cc[nH]c2)nc2c(-c3ccc(C(C)(C)O)nc3)cnn2c1N [Compound 7.16, 1-(5-((1R,3s,5S)-8-(1H-pyrrole-3-carbonyl)-8-azabicyclo[3.2.1]octan-3-yl)-7-amino-3-(6-(2-hydroxypropan-2-yl)pyridin-3-yl)pyrazolo[1,5-a]pyrimidin-6-yl)ethanone] | 7.00 to 9.00 | 6.00 to 7.00
CC(=O)c1c([C@@H]2C[C@H]3CC[C@@H](C2)N3C(=O)c2nnc(C)[nH]2)nc2c(-c3ccc(C4(O)CCC4)nc3)cnn2c1N [Compound 7.17, 1-(7-amino-3-(6-(1-hydroxycyclobutyl)pyridin-3-yl)-5-((1R,3s,5S)-8-(3-methyl-1H-1,2,4-triazole-5-carbonyl)-8-azabicyclo[3.2.1]octan-3-yl)pyrazolo[1,5-a]pyrimidin-6-yl)ethanone] | 6.00 to 7.00 | 6.00 to 7.00
CC(=O)c1c([C@@H]2C[C@H]3CC[C@@H](C2)N3C(=O)CO)nc2c(-c3ccc(C4(O)CCC4)nc3)cnn2c1N [Compound 7.18, 1-((1R,3s,5S)-3-(6-acetyl-7-amino-3-(6-(1-hydroxycyclobutyl)pyridin-3-yl)pyrazolo[1,5-a]pyrimidin-5-yl)-8-azabicyclo[3.2.1]octan-8-yl)-2-hydroxyethanone] | 6.00 to 7.00 | 6.00 to 7.00
CC(=O)c1c([C@@H]2C[C@H]3CC[C@@H](C2)N3C(=O)c2nc[nH]n2)nc2c(-c3ccc(C(C)O)cc3)cnn2c1N (stereo partly drawn) [Compound 7.20, 1-(5-((1R,3s,5S)-8-(1H-1,2,4-triazole-3-carbonyl)-8-azabicyclo[3.2.1]octan-3-yl)-7-amino-3-(4-(1-hydroxyethyl)phenyl)pyrazolo[1,5-a]pyrimidin-6-yl)ethanone] | 7.00 to 9.00 | 7.00 to 9.00
CC(=O)c1c([C@@H]2C[C@H]3CC[C@@H](C2)N3C(=O)c2nnc[nH]2)nc2c(-c3ccc([C@@H](C)O)cc3)cnn2c1N [Compound 7.21, 1-(5-((1R,3s,5S)-8-(4H-1,2,4-triazole-3-carbonyl)-8-azabicyclo[3.2.1]octan-3-yl)-7-amino-3-(4-((R)-1-hydroxyethyl)phenyl)pyrazolo[1,5-a]pyrimidin-6-yl)ethanone] | 7.00 to 9.00 | 7.00 to 9.00
CC(=O)c1c([C@@H]2C[C@H]3CC[C@@H](C2)N3C(=O)c2nnc[nH]2)nc2c(-c3ccc([C@H](C)O)cc3)cnn2c1N [Compound 7.22, 1-(5-((1R,3s,5S)-8-(4H-1,2,4-triazole-3-carbonyl)-8-azabicyclo[3.2.1]octan-3-yl)-7-amino-3-(4-((S)-1-hydroxyethyl)phenyl)pyrazolo[1,5-a]pyrimidin-6-yl)ethanone] | 7.00 to 9.00 | 7.00 to 9.00
CC(=O)c1c([C@@H]2C[C@H]3CC[C@@H](C2)N3C(=O)CO)nc2c(-c3cnc(C(C)(C)O)c(C)c3)cnn2c1N [Compound 7.23, 1-((1R,3s,5S)-3-(6-acetyl-7-amino-3-(6-(2-hydroxypropan-2-yl)-5-methylpyridin-3-yl)pyrazolo[1,5-a]pyrimidin-5-yl)-8-azabicyclo[3.2.1]octan-8-yl)-2-hydroxyethanone] | 6.00 to 7.00 | 6.00 to 7.00
CC(=O)c1c([C@@H]2C[C@H]3CC[C@@H](C2)N3C(=O)c2nnc[nH]2)nc2c(-c3cnc(C(C)(C)O)c(C)c3)cnn2c1N [Compound 7.24, 1-(5-((1R,3s,5S)-8-(4H-1,2,4-triazole-3-carbonyl)-8-azabicyclo[3.2.1]octan-3-yl)-7-amino-3-(6-(2-hydroxypropan-2-yl)-5-methylpyridin-3-yl)pyrazolo[1,5-a]pyrimidin-6-yl)ethanone] | 7.00 to 9.00 | 7.00 to 9.00
